SMILES strings stand for the structures. Entries after “also recorded” stand apart in the source; their conditions may differ. Where a name gives a salt, the structure may show the parent alone. Read-outs that look alike come from different tables or passages of the source.

The source of these data is paper PMC6611404 (Frontiers in Aging Neuroscience, 2019).

In series [1] the target is T1, Human 5-HT4R (Homo sapiens, UniProt Q13639).
T1 construct: purchased Eurofins HTS110M
Kind of series: [3H]-GR113808 competition binding on 5-HT4(b) membrane preparations. The conditions noted are these: for inhibition: 0.2 nM [3H]-GR113808. Here is the method: At the end of the incubation, homogenates were filtered through Whatman GF/C filters (Alpha Biotech) presoaked with 0.5% polyethylenimine using a Brandel cell harvester. Filters were subsequently washed three times with 1 mL of ice-cold 25 mM Tris buffer (pH 7.4, 4°C). Non-specific binding was evaluated in parallel in the presence of 30 μM serotonin.
(§1) For some of these compounds, affinity constants were calculated from five-point inhibition curves using the GraphPad Prism 6 software and expressed as Ki ± SD.

The target of series [2] is T2, AChE from human erythrocytes (Homo sapiens, UniProt P22303).
T2 construct: AChE from human erythrocytes; purchased Sigma Aldrich; host or cells: human erythrocytes (natural source)
T2 sequence (P22303 other isoform, or with tags, fused parts or gaps): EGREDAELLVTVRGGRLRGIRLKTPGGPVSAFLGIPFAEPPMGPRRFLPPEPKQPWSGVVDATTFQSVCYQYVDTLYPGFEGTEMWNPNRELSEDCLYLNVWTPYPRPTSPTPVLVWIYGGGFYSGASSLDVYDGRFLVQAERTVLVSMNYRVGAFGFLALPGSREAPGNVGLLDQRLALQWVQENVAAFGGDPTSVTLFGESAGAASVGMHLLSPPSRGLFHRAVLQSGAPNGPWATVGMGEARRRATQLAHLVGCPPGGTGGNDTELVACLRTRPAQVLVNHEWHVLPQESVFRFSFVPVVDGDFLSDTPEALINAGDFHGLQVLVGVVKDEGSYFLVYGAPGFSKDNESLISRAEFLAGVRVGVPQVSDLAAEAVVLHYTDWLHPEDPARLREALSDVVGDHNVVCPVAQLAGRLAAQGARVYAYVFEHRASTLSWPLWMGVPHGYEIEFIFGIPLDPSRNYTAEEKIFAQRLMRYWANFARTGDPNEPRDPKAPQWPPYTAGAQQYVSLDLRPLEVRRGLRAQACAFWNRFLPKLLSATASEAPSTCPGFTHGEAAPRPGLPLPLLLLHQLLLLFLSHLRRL
Briefly: biochemical. Conditions: for IC50: n = 2, read-out: (h)AChE IC50; for inhibition at 1 µM: read-out: (h)AChE % inhibition at 10^−6M. Here is the method: Acetylthiocholine iodide and 5,5-dithiobis-(2-nitrobenzoic) acid (DTNB) were purchased from Sigma Aldrich. AChE from human erythrocytes (buffered aqueous solution, ≥500 units/mg protein (BCA), Sigma Aldrich) was diluted in 20 mM HEPES buffer pH 8, 0.1% Triton X-100 such as to have enzyme solution with 0.25 unit/mL enzyme activity. In the procedure, 100 μL of 0.3 mM DTNB dissolved in phosphate buffer pH 7.4 was added into the 96-well plate followed by 50 μL of test compound solution and 50 μL of enzyme (0.05 U final). After 5 min of preincubation at 25°C, the reaction was then initiated by the injection of 50 μL of 10 mM acetylthiocholine iodide solution. […] Assays were performed with a blank containing all components except acetylthiocholine, in order to account for non-enzymatic reaction. The reaction slopes were compared and the percent inhibition due to the presence of test compounds was calculated by the following expression: 100 − (vi/v0 × 100) where vi is the rate calculated in the presence of inhibitor and v0 is the enzyme activity.

Series [3] concerns the target T3, human 5-HT6 receptors (Homo sapiens, UniProt P50406).
T3 construct: purchased Perkin Elmer RBHS6M; host or cells: HEK-293 cells, transient expression (membranes)
Kind of series: [3H]-LSD competition binding on membranes of HEK-293 cells expressing human 5-HT6 receptors. Conditions: for inhibition: 2.5 nM [3H]-LSD. On the procedure: Drugs were evaluated through their possibility to compete for the binding of [^3H]-LSD on membranes of HEK-293 cells transiently expressing the human 5-HT6 receptors (ref. RBHS6M, Perkin Elmer). […] At the end of the incubation, the homogenates were then filtered through Whatman GF/C filters and washed five times with ice-cold 25 mM Tris-HCl buffer. Non-specific binding was evaluated in the presence of 100 μM serotonin. Radioactivity associated to proteins was then quantified and expressed as the percentage of inhibition of the drugs under study.
as §1

The test system of series [4] is mice. Kind of series: CNS-activity and acute toxicity test. The conditions noted are these: mice, intraperitoneal. Here is the method:
(§2) Adult male NMRI mice (3 months old, weighing 35–40 g) from Janvier labs (Le Genest-Saint-Isle, France) were used to perform experiments. Mice were housed by ten in standard polycarbonate cages in standard controlled conditions (22 ± 2°C, 55 ± 10% humidity) with a reversed 12 h light/dark cycle (light on at 7 pm). Food and water were available ad libitum in the home cage.
(§3) The approximate DL50 of the compounds were also calculated through the quantification of mortality after 24 h. Amphetamine (2 mg/kg), chlorpromazine (10 mg/kg) were used as a stimulant and depressive references, respectively.
(§4) Amphetamine, (+)-α-Methylphenethylamine hemisulfate, chlorpromazine hydrochloride, imipramine hydrochloride and scopolamine hydrobromide were purchased from Sigma (France). All those pharmacological compounds were dissolved in NaCl 0.9% as the vehicle were administered IP 30 min before tests, except scopolamine which was subcutaneously administered 20 min before spontaneous alternation test.

Series [5] has as its target T4, (h)5-HT6R (Homo sapiens, UniProt P50406).
T4 construct: HA; expressed in transfected cells; host or cells: COS-7 cells, transient electroporation
Briefly: Blockade of the 5-HT6R-induced cAMP production in transfected COS-7 cells. Format: cell-based. The conditions noted are these: for (h)5-HT6R % control antagonist response: SB271046 as control 5-HT6R antagonist, n = 2. On the procedure:
(§5) COS-7 cells were grown in Dulbecco’s modified Eagle medium (DMEM) supplemented with 10% dialyzed fetal calf serum (dFCS) and antibiotics. Cells were transiently transfected by electroporation with plasmids encoding HA-tagged 5-HT4R (100 ng/10^6 cells) or HA-tagged 5-HT6R (70 ng/10^6 cells or 300 ng/10^6 cells), then seeded in 96-well plates (16,000 cells/well).
Blockade of the 5-HT6R-induced cAMP production: 24 h after transfection, cells were exposed to the indicated concentrations of 5-HT6R ligands at 37°C in 50 μL of HBS. […] After 10 min at 37°C, cells were then lysed by addition of 100 μL of Triton-X100 (0.1%).
(§6) Quantification of cAMP production was performed by HTRF® by using the cAMP Dynamic kit (Cisbio Bioassays) according to the manufacturer’s instructions.
Background: Changes in cAMP serve as a functional read-out for many G protein-coupled receptors.

Series [6] concerns the target T4, (h)5-HT6R. Briefly: Reversion of the basal 5-HT6R-induced cAMP production (constitutive activity) in COS-7 cells. Type of series: cell-based. The conditions noted are these: for cAMP production in the absence of agonist (inverse agonist activity): 10^−4M, absence of 5-HT; for (h)5-HT6R Profile: cAMP. On the procedure: as §5
Reversion of the basal 5-HT6R-induced cAMP production: the 5-HT6R expression was augmented by transfection of higher quantities of cDNA (300 ng/10^6 cells) to increase the basal cAMP production linked to the constitutive activity of the receptor. […] This experiment is performed in the absence of 5-HT. After 10 min at 37°C, cells were then lysed by addition of 100 μL of Triton-X100 (0.1%).
as §6

Series [7] deals with mice. Kind of series: Spatial working memory: scopolamine-induced deficit of spontaneous alternation in the Y maze. Format: in vivo, NMRI mice. Conditions: IP 30 min before test, 0.3, 1, 3 mg/kg, scopolamine 0.5 mg/kg SC, effect at doses starting from 0.3 mg/kg. Here is the method: as §2
An arm entry was scored when all four feet crossed into the arm. An alternation was defined as entries into all three arms on a consecutive occasion.
as §4

Series [8] concerns the target T5, (h)5-HT4(a)R (Homo sapiens, UniProt Q13639).
T5 construct: HA; expressed in transfected cells; host or cells: COS-7 cells, transient electroporation
Briefly: 5-HT4R-induced cAMP production in transfected COS-7 cells. Type of series: cell-based. On the procedure:
as §5
After 10 min, cells were then lysed by addition of the same volume of Triton-X100 (0.1%).
as §6

For series [9], the system named is mice. Kind of series: Locomotor activity (actimeter). Type of series: in vivo. The conditions noted are these: IP 30 min before test, 1, 3 and 10 mg/kg, 30 min recording. On the procedure:
as §2, §4

The nature of series [10]: CNS-activity and acute toxicity test. The conditions noted are these: male, NMRI, mouse, in vivo, ip. On the procedure: as §2, §3, §4
The mark [11] stands for this setting: read-out: (h)5-HT4R % inhibition at 10^−6M, 10^−6M.
Setting [12] is: read-out: (h)5-HT4R % inhibition at 10^−8M, 10^−8M.
Setting [13] is: read-out: (h)5-HT6R % inhibition at 10^−6M, 10^−6M.
Setting [14] is: read-out: (h)5-HT6R % inhibition at 10^−8M, 10^−8M.

T5 sequence (Q13639 1-387 isoform Q13639-2): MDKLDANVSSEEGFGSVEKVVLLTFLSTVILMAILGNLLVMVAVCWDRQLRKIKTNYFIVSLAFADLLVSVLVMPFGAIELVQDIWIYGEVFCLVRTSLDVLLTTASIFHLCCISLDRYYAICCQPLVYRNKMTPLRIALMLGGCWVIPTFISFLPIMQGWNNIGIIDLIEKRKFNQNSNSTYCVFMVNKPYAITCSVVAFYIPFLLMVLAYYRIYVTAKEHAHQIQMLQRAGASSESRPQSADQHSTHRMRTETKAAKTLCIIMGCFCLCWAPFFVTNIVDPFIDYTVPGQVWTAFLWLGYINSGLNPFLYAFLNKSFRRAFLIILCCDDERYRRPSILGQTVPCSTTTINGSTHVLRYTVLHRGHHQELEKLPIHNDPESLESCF
T3 sequence (P50406 whole entry): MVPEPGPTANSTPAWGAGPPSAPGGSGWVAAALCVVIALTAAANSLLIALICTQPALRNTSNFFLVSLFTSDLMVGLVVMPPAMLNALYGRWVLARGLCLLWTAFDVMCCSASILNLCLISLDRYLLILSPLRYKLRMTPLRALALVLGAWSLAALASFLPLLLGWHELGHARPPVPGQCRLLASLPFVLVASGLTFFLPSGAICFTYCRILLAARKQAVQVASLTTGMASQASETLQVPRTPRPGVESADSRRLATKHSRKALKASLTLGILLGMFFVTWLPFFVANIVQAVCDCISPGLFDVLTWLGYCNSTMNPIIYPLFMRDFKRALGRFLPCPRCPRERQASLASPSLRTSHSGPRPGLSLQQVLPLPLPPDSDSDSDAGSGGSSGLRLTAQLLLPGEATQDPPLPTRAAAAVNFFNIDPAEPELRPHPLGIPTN
T4 sequence (P50406 whole entry): as above
T1 sequence (Q13639 whole entry): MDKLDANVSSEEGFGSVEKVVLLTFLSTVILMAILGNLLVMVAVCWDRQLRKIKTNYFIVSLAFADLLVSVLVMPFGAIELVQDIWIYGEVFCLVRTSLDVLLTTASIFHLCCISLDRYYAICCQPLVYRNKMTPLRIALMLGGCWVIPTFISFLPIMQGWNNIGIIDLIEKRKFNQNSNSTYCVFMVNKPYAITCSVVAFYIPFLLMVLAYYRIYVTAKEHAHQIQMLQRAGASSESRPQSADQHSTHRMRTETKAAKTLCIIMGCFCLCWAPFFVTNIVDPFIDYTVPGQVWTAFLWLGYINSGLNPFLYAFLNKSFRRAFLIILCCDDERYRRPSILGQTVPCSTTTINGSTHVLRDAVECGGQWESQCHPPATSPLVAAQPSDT

A word on the inhibition: it is the change of the read-out against control, counted positive when it falls. As usually defined, the IC50 is the concentration at which inhibition is half-maximal. Regarding `COc1cc(N)c(Cl)cc1C(=O)CCC1CCN(Cc2ccc(C)cc2)CC1` [5q, 1-(4-Amino-5-chloro-2-methoxyphenyl)-3-(1-(4-methylbenzyl)piperidin-4-yl)propan-1-one], the inhibition in [1] (setting [11]) was 100%; in [1] (setting [12]), 24%; in series [3] (setting [13]), 21%; in series [3] (setting [14]), 21%. Besides, the IC50 in series [2] came out at 450 nM. For the same compound, in [2], the inhibition at 1 µM amounted to 87%.
`COc1cc(N)c(Cl)cc1C(=O)CCC1CCN(Cc2cc(NC(C)=O)ccc2Br)CC1` [5r, N-(3-((4-(3-(4-Amino-5-chloro-2-methoxyphenyl)-3-oxopropyl)piperidin-1-yl)methyl)-4-bromophenyl) acetamide]: the inhibition was 96% in [1] (setting [11]), 6% in series [1] (setting [12]), 35% in series [3] (setting [13]) and 7% in series [3] (setting [14]). Besides, in series [2], the inhibition at 1 µM was found to be 13%.
For `COc1cc(N)c(Cl)cc1C(=O)CCC1CCN(Cc2cc([N+](=O)[O-])ccc2F)CC1` [5s, 1-(4-Amino-5-chloro-2-methoxyphenyl)-3-(1-(2-fluoro-5-nitrobenzyl)piperidin-4-yl)propan-1-one] the same measures were 62%, 4%, 18%, 5% and 63%.
On to `COc1cc(N)c(Cl)cc1C(=O)CCC1CCN(Cc2cc(N)ccc2F)CC1` [5t, 1-(4-Amino-5-chloro-2-methoxyphenyl)-3-(1-(5-amino-2-fluorobenzyl)piperidin-4-yl)propan-1-one], for which the inhibition in series [1] (setting [11]) is 98%; in series [1] (setting [12]), 18%; in [3] (setting [13]), 65%; in series [3] (setting [14]) it was 3%. Also, the IC50 in series [2] came out at 153 ± 19.9 nM. For the same compound, in series [2], the inhibition at 1 µM came to 79%.
For the compound `C[C@H](N)Cc1ccccc1` [Amphetamine, (+)-α-Methylphenethylamine hemisulfate], in series [4] (2 mg/kg, stimulant reference), the “Symptoms (subtoxic doses)” value is “Hyperactivity; also recorded: Exopthalmy; also recorded: Irritability”.
As to `CN(C)CCCN1c2ccccc2Sc2ccc(Cl)cc21` [Chlorpromazine, chlorpromazine hydrochloride], the “Symptoms (subtoxic doses)” value in [4] (10 mg/kg, depressive reference) is listed as “Hypoactivity; also recorded: Ataxia; also recorded: Sleep”.
With `Fc1ccc2c(CCNCc3cccc(OCC(F)(F)C(F)F)c3)c[nH]c2c1` [compound 2, idalopirdine, reference compound], in series [5], the “(h)5-HT6R % control antagonist response” value amounted to 101.2 ± 3.2 n = 2%. Further, in [3] (setting [14]), the inhibition came out at 88%. Moreover, in [6], the “cAMP production in the absence of agonist (inverse agonist activity)” value is reported as “decreased cAMP production below the basal” and the “(h)5-HT6R Profile” value is “Inverse agonist”.
As usually defined, the Ki is a dissociation constant, usually derived from enzyme kinetics or from competition with a known ligand. As usually defined, the EC50 is the midpoint of the concentration-response curve. A low value points to an effect from little substance. Usually LD50 stands for the dose expected to kill half of the subjects tested. High values mean a less toxic substance, low ones a more toxic substance. For `COc1cc(N)c(Cl)cc1C(=O)CCC1CCN(Cc2cccc(C)c2)CC1.O=C(O)/C=C/C(=O)O` [compound 10, 1-(4-Amino-5-chloro-2-methoxyphenyl)-3-(1-(3-methylbenzyl)piperidin-4-yl)propan-1-one fumaric acid salt], in [7], the “Effect on scopolamine-induced spontaneous alternation deficit” value is recorded as “anti-amnesic effect was observed”. Further, in [5], the IC50 is 10000 nM and the “(h)5-HT6R % control antagonist response” value is given as 93.4 ± 1.8 n = 2%. Moreover, in [1] ((h)5-HT4R Ki, n = 3, Ki ± SD), the affinity, expressed as Ki, was 210 ± 43 nM. In series [8], this compound had an EC50 of 20 nM. In series [8] (5-HT as control 5-HT4R agonist, n = 2), the “(h)5-HT4(a)R % control agonist response” value stood at 59.8 ± 2.5 n = 2%. Also, the “(h)5-HT4(a)R Profile” value in series [8] (cAMP, COS-7 cells) was “Partial agonist”. Also, the IC50 in series [2] worked out at 33.7 ± 1.7 nM. The compound also displayed a Ki in series [3] ((h)5-HT6R Ki, n = 3, Ki ± SD) of 219 ± 42 nM. Besides, the “Effect on spontaneous locomotor activity” value in series [9] is “did neither modify spontaneous locomotor activity”. In series [6], the “cAMP production in the absence of agonist (inverse agonist activity)” value is reported as “decreased cAMP production below the basal” and the “(h)5-HT6R Profile” value is recorded as “Inverse agonist”. This compound displayed an LD50 at 24 h in [10] greater than 100 mg/kg. Moreover, in series [4] (1–10–100 mg/kg), the “Symptoms (subtoxic doses)” value is reported as “did not show any deleterious signs; also recorded: No symptoms”.
